Measurements taken from the supplement of paper PMC10307832.

Columns and labels:
Test in all cases: relative viability (nuclei count vs DMSO), 5 days (fraction); higher = more cells survive
[1] = compound: OCc1c[nH]c2ccccc12 [Indole-3-carbinol] + Cc1nc(Nc2ncc(C(=O)Nc3c(C)cccc3Cl)s2)cc(N2CCN(CCO)CC2)n1 [Dasatinib] (partner 0.075 µM)
Procedure, shortened: (§1)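 Dosing by pin tool came one day after lung cancer cell lines were seeded in 1536-well plates, using either one drug or a fixed anchor-drug dose plus five library-drug doses (not always all listed) in √10 steps. After 5 days, nuclei were counted on 4× images. Relative viability is treated-well nuclei count divided by vehicle-well nuclei count, and values are medians of duplicate plates.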

[2] = compound: OCc1c[nH]c2ccccc12 [Indole-3-carbinol] + Cc1cc(Nc2cc(N3CCN(C)CC3)nc(Sc3ccc(NC(=O)C4CC4)cc3)n2)n[nH]1 [Tozasertib] (partner 0.1 µM)
Procedure, shortened: as §1

[3] = compound: OCc1c[nH]c2ccccc12 [Indole-3-carbinol] + O=C(c1cc(Cc2n[nH]c(=O)c3ccccc23)ccc1F)N1CCN(C(=O)C2CC2)CC1 [Olaparib] (partner 8 µM)
Procedure, shortened: as §1

[4] = compound: OCc1c[nH]c2ccccc12 [Indole-3-carbinol] + O=C(CCCCCCC(=O)Nc1ccccc1)NO [Vorinostat] (partner 1 µM)
Procedure, shortened: as §1

[5] = compound: OCc1c[nH]c2ccccc12 [Indole-3-carbinol] + C[C@]1(O)C[C@@H](c2nc(-c3ccc4ccc(-c5ccccc5)nc4c3)c3c(N)nccn32)C1 [Linsitinib] (partner 1 µM)
Procedure, shortened: as §1

Cell Line | relative viability ([1]; first compound 0.253 µM) | relative viability ([1]; first compound 0.8 µM) | relative viability ([1]; first compound 2.53 µM) | relative viability ([1]; first compound 8 µM) | relative viability ([2]; first compound 0.253 µM) | relative viability ([2]; first compound 0.8 µM) | relative viability ([2]; first compound 2.53 µM) | relative viability ([2]; first compound 8 µM) | relative viability ([3]; first compound 0.253 µM) | relative viability ([3]; first compound 0.8 µM) | relative viability ([3]; first compound 2.53 µM) | relative viability ([3]; first compound 8 µM) | relative viability ([4]; first compound 0.253 µM) | relative viability ([4]; first compound 0.8 µM) | relative viability ([4]; first compound 2.53 µM) | relative viability ([4]; first compound 8 µM) | relative viability ([5]; first compound 0.253 µM) | relative viability ([5]; first compound 0.8 µM) | relative viability ([5]; first compound 2.53 µM) | relative viability ([5]; first compound 8 µM)
NCI-H358 | 0.146 | 0.204 | 0.172 | 0.189 | 0.097 | 0.131 | 0.113 | 0.0974 | 0.619 | 0.659 | 0.717 | 0.569 | 0.763 | 0.752 | 0.684 | 0.624 | 0.697 | 0.7 | 0.734 | 0.709
NCI-H441 | 0.606 | 0.598 | 0.711 | 0.643 | 0.551 | 0.782 | 0.702 | 0.595 | 0.61 | 0.685 | 0.572 | 0.496 | 0.823 | 1.05 | 1.09 | 0.758 | 0.582 | 0.688 | 0.576 | 0.441
NCI-H460 | 0.451 | 0.59 | 0.499 | 0.444 | 0.426 | 0.385 | 0.532 | 0.443 | 0.38 | 0.377 | 0.455 | 0.375 | 0.768 | 0.76 | 0.754 | 0.683 | 0.773 | 0.875 | 0.713 | 0.689
NCI-H520 | 0.177 | 0.245 | 0.242 | 0.183 | 0.445 | 0.46 | 0.417 | 0.457 | 0.336 | 0.341 | 0.383 | 0.265 | 0.707 | 0.7 | 0.87 | 0.692 | 1.04 | 0.872 | 1.24 | 0.854
NCI-H596 | 0.649 | 0.665 | 0.659 | 0.595 | 0.803 | 1.04 | 0.784 | 0.896 | 0.602 | 0.738 | 0.451 | 0.653 | 0.552 | 0.522 | 0.565 | 0.675 | 1.02 | 1.08 | 1.07 | 0.954
NCI-H647 | 0.18 |  | 0.222 | 0.167 | 0.147 |  | 0.368 | 0.398 | 0.578 | 0.735 | 0.693 | 0.409 | 0.731 | 0.529 | 0.731 | 0.538 | 1.08 | 1.44 | 1.13 | 1.04
NCI-H650 | 0.472 | 0.488 | 0.444 | 0.447 | 0.743 | 0.767 | 0.805 | 0.681 | 0.395 | 0.403 | 0.418 | 0.359 | 0.654 | 0.454 | 0.411 | 0.456 | 0.948 | 0.773 | 0.909 | 0.712
NCI-H661 | 0.961 | 0.827 | 0.819 | 0.917 | 0.335 | 0.334 | 0.359 | 0.348 | 0.775 | 0.771 | 0.866 | 0.742 | 0.762 | 0.816 | 0.874 | 0.716 | 0.542 | 0.378 | 0.623 | 0.676
NCI-H727 | 0.365 | 0.408 | 0.294 | 0.306 | 0.512 | 0.73 | 0.599 | 0.554 | 0.616 | 0.694 | 0.657 | 0.634 | 1.13 | 1.12 | 1.36 | 1.23 | 0.178 | 0.31 | 0.268 | 0.283
NCI-H838 | 0.27 | 0.31 | 0.297 | 0.295 | 0.265 | 0.308 | 0.301 | 0.286 | 0.856 | 0.85 | 0.75 | 0.704 | 0.741 | 0.737 | 0.766 | 0.654 | 1.09 | 0.975 | 1.02 | 0.951
NCI-H1355 | 0.677 | 0.886 | 0.672 | 0.737 | 0.525 | 0.619 | 0.551 | 0.564 | 0.782 | 0.77 | 0.772 | 0.699 | 0.612 | 0.69 | 0.667 | 0.63 | 0.774 | 0.802 | 0.764 | 0.715
NCI-H1395 | 0.386 | 0.392 | 0.458 | 0.413 | 0.705 | 0.77 | 0.734 | 0.758 | 0.42 | 0.478 | 0.48 | 0.413 | 0.694 | 0.65 | 0.628 | 1.05 | 1.04 | 0.974 | 1.02 | 1.14
NCI-H1437 | 0.386 | 0.445 | 0.35 | 0.541 | 0.412 | 0.439 | 0.421 | 0.424 | 0.65 | 0.675 | 0.639 | 0.619 | 0.827 | 0.979 | 0.861 | 0.868 | 0.986 | 1.16 | 1.04 | 0.894
NCI-H1651 | 0.412 | 0.387 | 0.443 | 0.368 | 0.723 | 0.922 | 0.834 | 0.614 | 0.195 | 0.203 | 0.161 | 0.175 | 0.517 | 0.55 | 0.616 | 0.646 | 0.873 | 1.11 | 1.06 | 0.895
NCI-H1666 | 0.898 | 0.835 | 0.886 | 0.805 | 0.556 | 0.638 | 0.526 | 0.657 | 0.803 | 0.731 | 0.766 | 0.728 | 0.926 | 1.1 | 1.08 | 0.995 | 0.81 | 0.867 | 0.84 | 0.808
NCI-H1734 | 0.441 | 0.458 | 0.542 | 0.399 | 0.276 | 0.263 | 0.259 | 0.27 | 0.61 | 0.619 | 0.613 | 0.58 | 0.799 | 0.809 | 0.803 | 0.774 | 0.947 | 0.872 | 0.835 | 0.813
